{
  "source": "ChEMBL document CHEMBL4145686",
  "about": "“Discovery of a Potent and Selective Steroidal Glucocorticoid Receptor Antagonist (ORIC-101)” (J Med Chem, 2018)",
  "key": {"Androgen receptor": {"molecular_target": "T1, Androgen receptor (Homo sapiens, UniProt P10275)", "T1 sequence (P10275 whole entry)": "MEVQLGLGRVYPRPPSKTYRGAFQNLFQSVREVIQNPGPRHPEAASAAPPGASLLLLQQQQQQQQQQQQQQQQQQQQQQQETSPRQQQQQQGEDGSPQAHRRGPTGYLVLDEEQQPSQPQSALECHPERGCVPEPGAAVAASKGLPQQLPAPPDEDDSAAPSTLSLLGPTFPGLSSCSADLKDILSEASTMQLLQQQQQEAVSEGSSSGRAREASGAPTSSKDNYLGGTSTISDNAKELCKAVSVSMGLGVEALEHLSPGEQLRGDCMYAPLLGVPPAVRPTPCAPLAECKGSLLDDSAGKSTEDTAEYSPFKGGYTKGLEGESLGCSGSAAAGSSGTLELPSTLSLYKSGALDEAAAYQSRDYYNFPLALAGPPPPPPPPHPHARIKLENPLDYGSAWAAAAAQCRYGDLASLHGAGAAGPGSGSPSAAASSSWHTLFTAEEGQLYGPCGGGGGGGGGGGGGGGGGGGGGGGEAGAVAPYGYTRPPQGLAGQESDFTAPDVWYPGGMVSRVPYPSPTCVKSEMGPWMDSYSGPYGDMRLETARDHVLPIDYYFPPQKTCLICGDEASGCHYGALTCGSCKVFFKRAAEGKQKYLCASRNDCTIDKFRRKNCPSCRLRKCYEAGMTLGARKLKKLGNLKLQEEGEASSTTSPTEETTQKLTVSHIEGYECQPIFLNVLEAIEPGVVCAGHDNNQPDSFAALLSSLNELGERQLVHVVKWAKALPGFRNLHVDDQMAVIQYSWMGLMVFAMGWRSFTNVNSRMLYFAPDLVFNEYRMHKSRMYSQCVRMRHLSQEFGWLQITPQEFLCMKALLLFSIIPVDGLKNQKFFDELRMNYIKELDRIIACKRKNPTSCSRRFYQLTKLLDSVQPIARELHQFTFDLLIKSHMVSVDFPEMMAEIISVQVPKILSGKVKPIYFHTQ", "experiment": "Agonist activity at AR in human LNAR cells assessed as increase in TMPRSS2 gene expression at 100 nM incubated for 24 hrs by RT-qPCR method", "assay_type": "cell-based", "conditions": "0.1 µM; call rule not given here"}, "[1]": {"experiment": "Half life in mini pig at 0.5 mg/kg, iv", "assay_type": "ADME, organism-based, Sus scrofa", "conditions": "in vivo"}, "Glucocorticoid receptor [2]": {"molecular_target": "T2, Glucocorticoid receptor (Homo sapiens, UniProt P04150)", "T2 sequence (P04150 whole entry)": "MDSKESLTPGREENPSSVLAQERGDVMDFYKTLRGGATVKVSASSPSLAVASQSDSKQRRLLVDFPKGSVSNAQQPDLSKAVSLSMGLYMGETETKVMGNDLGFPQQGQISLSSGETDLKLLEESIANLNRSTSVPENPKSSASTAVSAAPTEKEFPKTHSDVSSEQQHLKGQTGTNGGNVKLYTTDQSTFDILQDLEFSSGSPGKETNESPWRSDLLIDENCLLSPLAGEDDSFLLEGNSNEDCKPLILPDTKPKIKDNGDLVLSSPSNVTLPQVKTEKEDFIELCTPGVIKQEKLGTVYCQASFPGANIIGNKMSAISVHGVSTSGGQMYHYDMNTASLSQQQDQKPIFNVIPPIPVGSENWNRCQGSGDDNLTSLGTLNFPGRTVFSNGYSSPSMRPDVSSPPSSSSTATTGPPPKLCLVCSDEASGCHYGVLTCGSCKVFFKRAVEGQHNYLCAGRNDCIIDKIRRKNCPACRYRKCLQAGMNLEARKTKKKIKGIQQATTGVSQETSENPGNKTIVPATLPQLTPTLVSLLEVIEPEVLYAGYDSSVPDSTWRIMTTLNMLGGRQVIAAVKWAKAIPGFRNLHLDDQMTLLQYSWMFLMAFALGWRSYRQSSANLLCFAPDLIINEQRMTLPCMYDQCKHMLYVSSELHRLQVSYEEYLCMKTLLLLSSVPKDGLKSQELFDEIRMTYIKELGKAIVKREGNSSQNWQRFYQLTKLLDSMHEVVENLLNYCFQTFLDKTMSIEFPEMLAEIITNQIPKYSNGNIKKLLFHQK", "experiment": "Antagonist activity at GR in human PBMC assessed as reduction in dexamethasone-induced GILZ gene expression incubated for 6 hrs by RT-qPCR method", "assay_type": "cell-based"}, "Glucocorticoid receptor [3]": {"molecular_target": "T2, Glucocorticoid receptor", "experiment": "Antagonist activity at GR in human PBMC assessed as reduction in dexamethasone-induced FKBP5 gene expression incubated for 6 hrs by RT-qPCR method", "assay_type": "cell-based"}},
  "data": [
    {"smiles": "CC(C)N(C)c1ccc([C@H]2C[C@@]3(C)[C@@H](CC[C@@]3(O)C#CC(C)(C)C)[C@@H]3CCC4=CC(=O)CC[C@@H]4[C@H]32)cc1", "values": [
      {"measurement": "Activity", "setting": "Androgen receptor", "value": "Not Active"},
      {"measurement": "half-life", "setting": "[1]", "value": 12.2, "unit": "h"},
      {"measurement": "IC50", "setting": "Glucocorticoid receptor [2]", "value": 24.9, "unit": "nM"},
      {"measurement": "IC50", "setting": "Glucocorticoid receptor [3]", "value": 19.5, "unit": "nM"}
    ]}
  ]
}
